# In ChEMBL document CHEMBL1130994, “3-trifluoromethylcarbacephems: synthesis of broad spectrum antibacterial compounds” (1998):
# Key:
# Acinetobacter = assay: Compound was evaluated for inhibitory activity against AC12 Acinetobacter; type: functional
# Citrobacter = assay: Compound was evaluated for inhibitory activity against CF17 Citrobacter; type: functional
# Enterobacter cloacae [1] = assay: Compound was evaluated for inhibitory activity against 265a Enterobacter cloacae beta-lactamase; type: functional
# Enterobacter cloacae [2] = assay: Compound was evaluated for inhibitory activity against EB5 Enterobacter cloacae; type: functional
# Escherichia coli [3] = assay: Compound was evaluated for inhibitory activity against EC14 Escherichia coli sensitive; type: functional
# Escherichia coli [4] = assay: Compound was evaluated for inhibitory activity against TEM Escherichia coli beta-lactamase; type: functional
# Klebsiella aerogenes [5] = assay: Compound was evaluated for inhibitory activity against EB17 Enterobacter aerogenes; type: functional
# Enterococcus faecalis = assay: Compound was evaluated for inhibitory activity against 2041 Enterococcus faecalis Gp.D streptococcus penicillin susceptible; type: functional
# Klebsiella aerogenes [6] = assay: Compound was evaluated for inhibitory activity against C32 Enterobacter aerogenes; type: functional
# Haemophilus influenzae [7] = assay: Compound was evaluated for inhibitory activity against 76 Haemophilus influenzae beta-lactamase; type: functional
# Haemophilus influenzae [8] = assay: Compound was evaluated for inhibitory activity against C.L Haemophilus influenzae ampicillin sensitive; type: functional
# Klebsiella pneumoniae [9] = assay: Compound was evaluated for inhibitory activity against KAE Klebsiella pneumoniae; type: functional
# Klebsiella pneumoniae [10] = assay: Compound was evaluated for inhibitory activity against X26 Klebsiella pneumoniae; type: functional
# Morganella morganii = assay: Compound was evaluated for inhibitory activity against PR15 Morganella morganii; type: functional
# Providencia rettgeri = assay: Compound was evaluated for inhibitory activity against C24 Providencia rettgeri; type: functional
# Providencia stuartii = assay: Compound was evaluated for inhibitory activity against PR33 Providencia stuartii; type: functional
# Salmonella = assay: Compound was evaluated for inhibitory activity against X514 Salmonella; type: functional
# Serratia [11] = assay: Compound was evaluated for inhibitory activity against SE3 Serratia; type: functional
# Serratia [12] = assay: Compound was evaluated for inhibitory activity against X99 Serratia; type: functional
# Streptococcus pyogenes [13] = assay: Compound was evaluated for inhibitory activity against C203 Streptococcus pyogenes Gp.A; type: functional
# Staphylococcus aureus [14] = assay: Compound was evaluated for inhibitory activity against S13E Staphylococcus aureus methicillin resistant penicillin resistant macrolide sensitive (PBP2a producer); type: functional
# Staphylococcus aureus [15] = assay: Compound was evaluated for inhibitory activity against X1.1 Staphylococcus aureus penicillin sensitive; type: functional
# Staphylococcus aureus [16] = assay: Compound was evaluated for inhibitory activity against X400S Staphylococcus aureus methicillin resistant and macrolide resistant; type: functional
# Streptococcus pneumoniae = assay: Compound was evaluated for inhibitory activity against Park S Streptococcus pneumoniae; type: functional
# Streptococcus pyogenes [17] = assay: Compound was evaluated for inhibitory activity against C203 Streptococcus pyogenes Gp.A; No growth; type: functional, organism-based
SMILES,MIC (Acinetobacter),MIC (Citrobacter),MIC (Enterobacter cloacae [1]),MIC (Enterobacter cloacae [2]),MIC (Escherichia coli [3]),MIC (Escherichia coli [4]),MIC (Klebsiella aerogenes [5]),MIC (Enterococcus faecalis),MIC (Klebsiella aerogenes [6]),MIC (Haemophilus influenzae [7]),MIC (Haemophilus influenzae [8]),MIC (Klebsiella pneumoniae [9]),MIC (Klebsiella pneumoniae [10]),MIC (Morganella morganii),MIC (Providencia rettgeri),MIC (Providencia stuartii),MIC (Salmonella),MIC (Serratia [11]),MIC (Serratia [12]),MIC (Staphylococcus aureus [14]),other results
N[C@@H](C(=O)N[C@@H]1C(=O)N2C(C(=O)O)=C(C(F)(F)F)CC[C@H]12)c1ccccc1,32 µM,4 µM,8 µM,4 µM,0.5 µM,1 µM,2 µM,16 µM,4 µM,1 µM,1 µM,4 µM,0.25 µM,32 µM,8 µM,4 µM,0.25 µM,16 µM,8 µM,8 µM,MIC (Streptococcus pyogenes [13]): 0.03 µM; MIC (Staphylococcus aureus [15]): 0.5 µM; MIC (Staphylococcus aureus [16]): 32 µM; MIC (Streptococcus pneumoniae): 0.25 µM
Cc1cccc([C@@H](N)C(=O)N[C@@H]2C(=O)N3C(C(=O)O)=C(C(F)(F)F)CC[C@H]23)c1,32 µM,16 µM,32 µM,16 µM,2 µM,4 µM,4 µM,8 µM,32 µM,2 µM,1 µM,16 µM,1 µM,8 µM,16 µM,8 µM,8 µM,32 µM,16 µM,4 µM,MIC (Streptococcus pyogenes [13]): 0.03 µM; MIC (Staphylococcus aureus [15]): 1 µM; MIC (Staphylococcus aureus [16]): 4 µM; MIC (Streptococcus pneumoniae): 0.25 µM
N[C@@H](C(=O)N[C@@H]1C(=O)N2C(C(=O)O)=C(Cl)CS[C@H]12)c1ccccc1 [CEFACLOR ANHYDROUS],128 µM,128 µM,128 µM,32 µM,1 µM,2 µM,8 µM,32 µM,32 µM,1 µM,2 µM,128 µM,0.25 µM,128 µM,64 µM,64 µM,0.5 µM,128 µM,64 µM,128 µM,MIC (Streptococcus pyogenes [13]): 0.06 µM; MIC (Staphylococcus aureus [15]): 0.5 µM; MIC (Staphylococcus aureus [16]): 128 µM; MIC (Streptococcus pneumoniae): 0.5 µM
N[C@@H](C(=O)N[C@@H]1C(=O)N2C(C(=O)O)=C(C(F)(F)F)CC[C@H]12)c1ccc(Cl)c(Cl)c1,128 µM,128 µM,128 µM,128 µM,32 µM,16 µM,128 µM,16 µM,128 µM,2 µM,2 µM,64 µM,1 µM,32 µM,64 µM,32 µM,32 µM,128 µM,128 µM,8 µM,MIC (Streptococcus pyogenes [13]): 0.02 µM; MIC (Staphylococcus aureus [15]): 0.5 µM; MIC (Staphylococcus aureus [16]): 64 µM; MIC (Streptococcus pneumoniae): 0.13 µM
CS(=O)(=O)Nc1cccc([C@@H](N)C(=O)N[C@@H]2C(=O)N3C(C(=O)O)=C(C(F)(F)F)CC[C@H]23)c1,64 µM,16 µM,32 µM,16 µM,0.5 µM,1 µM,4 µM,16 µM,2 µM,2 µM,2 µM,16 µM,0.5 µM,8 µM,16 µM,8 µM,2 µM,32 µM,16 µM,16 µM,MIC (Streptococcus pyogenes [13]): 0.06 µM; MIC (Staphylococcus aureus [15]): 2 µM; MIC (Staphylococcus aureus [16]): 16 µM; MIC (Streptococcus pneumoniae): 0.13 µM
N[C@@H](C(=O)N[C@@H]1C(=O)N2C(C(=O)O)=C(C(F)(F)F)CC[C@H]12)c1cccc(C(F)(F)F)c1,32 µM,128 µM,128 µM,4 µM,8 µM,16 µM,128 µM,16 µM,128 µM,1 µM,1 µM,64 µM,1 µM,32 µM,64 µM,32 µM,32 µM,128 µM,128 µM,16 µM,MIC (Streptococcus pyogenes [17]): No growth; MIC (Staphylococcus aureus [15]): 2 µM; MIC (Staphylococcus aureus [16]): 16 µM; MIC (Streptococcus pneumoniae): 0.13 µM
N[C@@H](C(=O)N[C@@H]1C(=O)N2C(C(=O)O)=C(C(F)(F)F)CC[C@H]12)c1cccc(Br)c1,16 µM,32 µM,64 µM,64 µM,4 µM,4 µM,32 µM,8 µM,16 µM,1 µM,0.5 µM,16 µM,0.25 µM,16 µM,16 µM,16 µM,4 µM,128 µM,128 µM,8 µM,MIC (Streptococcus pyogenes [13]): 0.13 µM; MIC (Staphylococcus aureus [15]): 1 µM; MIC (Staphylococcus aureus [16]): 16 µM; MIC (Streptococcus pneumoniae): 0.13 µM
N[C@@H](C(=O)N[C@@H]1C(=O)N2C(C(=O)O)=C(C(F)(F)F)CC[C@H]12)c1ccc(O)c(Cl)c1,32 µM,4 µM,16 µM,8 µM,0.5 µM,1 µM,1 µM,4 µM,2 µM,0.5 µM,0.5 µM,4 µM,0.13 µM,4 µM,4 µM,4 µM,0.125 µM,16 µM,4 µM,8 µM,MIC (Streptococcus pyogenes [13]): 0.03 µM; MIC (Staphylococcus aureus [15]): 1 µM; MIC (Staphylococcus aureus [16]): 8 µM; MIC (Streptococcus pneumoniae): 0.06 µM
